According to patent publication US11331310B2, “Method of treating cocaine addiction” (MyMD Pharmaceuticals (Florida), Inc., priority 2015, dated 2022):
Entries after “also recorded” stand apart in the source; their conditions may differ.

Columns and labels:
MPTP-induced toxicity = conditions: mice, cited from earlier work; for dopamine levels: MPTP
MAO-B [1] = biological target: T1, MAO-B (Homo sapiens, UniProt P27338); conditions: cited from earlier work
T1 sequence (P27338 1-520): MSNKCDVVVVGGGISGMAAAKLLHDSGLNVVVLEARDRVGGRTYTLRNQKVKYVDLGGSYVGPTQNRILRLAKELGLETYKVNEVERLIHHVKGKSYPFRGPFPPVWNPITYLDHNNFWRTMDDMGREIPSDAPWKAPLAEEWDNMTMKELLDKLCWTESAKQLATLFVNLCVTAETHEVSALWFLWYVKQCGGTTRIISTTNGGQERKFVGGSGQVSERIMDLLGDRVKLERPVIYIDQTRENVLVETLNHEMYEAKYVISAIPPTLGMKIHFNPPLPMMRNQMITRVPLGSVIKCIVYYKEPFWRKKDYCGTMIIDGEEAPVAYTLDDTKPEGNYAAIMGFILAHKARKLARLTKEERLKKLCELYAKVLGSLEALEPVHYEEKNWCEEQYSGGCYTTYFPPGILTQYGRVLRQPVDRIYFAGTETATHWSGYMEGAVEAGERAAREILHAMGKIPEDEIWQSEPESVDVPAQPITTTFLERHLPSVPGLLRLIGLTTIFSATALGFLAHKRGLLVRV

MAO-A [2] = biological target: T2, MAO-A (Homo sapiens, UniProt P21397); conditions: cited from earlier work
T2 construct: purchased
T2 sequence (P21397 1-527): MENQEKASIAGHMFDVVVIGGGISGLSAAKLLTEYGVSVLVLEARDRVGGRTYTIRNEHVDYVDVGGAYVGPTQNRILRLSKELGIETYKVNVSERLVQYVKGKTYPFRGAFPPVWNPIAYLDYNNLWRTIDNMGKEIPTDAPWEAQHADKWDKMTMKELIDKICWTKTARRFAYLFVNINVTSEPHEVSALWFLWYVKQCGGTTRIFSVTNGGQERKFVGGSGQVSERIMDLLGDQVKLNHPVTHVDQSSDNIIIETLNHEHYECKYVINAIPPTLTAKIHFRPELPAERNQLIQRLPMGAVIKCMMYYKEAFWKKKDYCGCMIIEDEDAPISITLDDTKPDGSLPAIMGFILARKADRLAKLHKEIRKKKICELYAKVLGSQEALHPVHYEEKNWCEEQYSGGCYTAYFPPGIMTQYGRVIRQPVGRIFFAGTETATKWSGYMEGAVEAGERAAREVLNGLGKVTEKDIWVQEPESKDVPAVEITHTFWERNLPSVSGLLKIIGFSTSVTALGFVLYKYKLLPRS

MAO-A [3] = biological target: T2, MAO-A; test: MAO-Glo luminescent assay, MAO-A inhibition; assay type: biochemical
Source text: (§1) This example describes experiments for determining monoamine oxidase (MAO) inhibition for isomyosmine and other alkaloids. MAOs are enzymes located on the outer membrane of mitochondria and are involved in the catabolism of monoamine neurotransmitters. There are two well-characterized isoenzymes: MAO-A, which predominantly catabolizes serotonin and norepinephrine, and MAO-B, which preferentially catabolizes benzylamine and phenylethylamine. Dopamine and tyramine are metabolized by both isoforms.
(§2) To detect the activity of MAO, a luminescent method (MAO-Glo Assay kit, from Promega, Cat #V1401) was used. In this method, a MAO substrate (a derivative of beetle luciferin provided in the kit) is mixed with the compound to be tested (in this case, myosmine and control compounds). Then, the MAO enzymes (either A or B, purchased separately) are added to the mixture and incubated with the reaction for 1 hour at room temperature. The MAO enzymes, if not inhibited by the test compound, will convert the substrate into methyl ester luciferin. Finally, a luciferin detection reagent (provided by the kit) is added (20 minutes at room temperature) to stop the MAO reaction and convert methyl ester luciferin into D-luciferin. […] The luminescent signal is measured and recorded using a luminometer. […]

MAO-B [4] = biological target: T1, MAO-B; test: MAO-Glo luminescent assay, MAO-B inhibition; assay type: biochemical; conditions: 1 hour at room temperature, compared among five alkaloids
Source text: as §1, §2

[5] = Oxygen saturation in individuals after oral administration; assay type: in vivo; conditions: fourteen individuals, one hour after oral administration, 100-300 mg depending on body weight
Source text: Increasing oxygen saturation levels is believed to make isomyosmine particularly effective for treating substance addictions, including tobacco/nicotine addictions, as well as addictions to heroin, cocaine, opioids, methadone, d-methamphetamine, barbiturates, alcohol, benzodiazepines, amphetamines, or buprenorphine. For example, substances such as cocaine are known to cause blood vessels to constrict, resulting in increased heartrate and blood pressure and increased stress on the heart's ability to circulate blood and oxygen through the body. Increasing oxygen saturation levels may, among other things, counteract these types of effects associated with substance abuse by increasing blood oxygen levels, aiding in the treatment of the underlying addiction.

SMILES | dopamine levels (MPTP-induced toxicity) | decrease in dopamine metabolite levels induced by MPTP (MPTP-induced toxicity) | MAO inhibitory effects against MAO-B (MAO-B [1]) | MAO inhibitory effects against MAO-A (MAO-A [2]) | other results
c1ccc(-c2ccncc2)cc1 [4-phenylpyridine] | no significant effect | prevented the decrease |  |  | 
c1cncc([C@@H]2CCCCN2)c1 [anabasine] |  |  | exhibited MAO inhibitory effects | exhibited MAO inhibitory effects | 
C1=CCC(c2cccnc2)NC1 (stereo not drawn) [anatabine] |  |  | exhibited MAO inhibitory effects | exhibited MAO inhibitory effects | 
C1=NC(c2cccnc2)CC1 (stereo not drawn) [isomyosmine, 3-(3,4-dihydro-2H-pyrrol-2-yl)-pyridine] |  |  |  |  | inhibition at 2000 µM (MAO-A [3]; 2 mM concentration (2,000 micromolar)): ~50%; inhibition of the enzymatic activity of MAO-A (in words, curve position in FIG. 1) (MAO-A [3]; 1 hour at room temperature, compared among five alkaloids): most potent of the five; also recorded: potent inhibitor; inhibition of the activity of MAO-B (in words, FIG. 2) (MAO-B [4]): potent inhibitor; inhibition of the activity of MAO-B (in words, FIG. 2) (MAO-B [4]; listed as Isomyosmine): most potent among the five alkaloids tested; oxygen saturation (%) [5]: dramatically increase
CN1CCCC1c1cccnc1 (stereo not drawn) [nicotine] | no significant effect | prevented the decrease |  |  | 
c1cncc([C@@H]2CCCN2)c1 [nornicotine] |  |  | exhibited MAO inhibitory effects | exhibited MAO inhibitory effects | 
